In article PMC2362731, “Phase I study of Carzelesin (U-80,244) given (4-weekly) by intravenous bolus schedule” (British Journal of Cancer, 1999):

Test system: patients with advanced solid tumours
Test: Phase I toxicity of Carzelesin, 4-weekly 10 min IV infusion (NCI-CTC grading)
Format: in vivo, human
Procedure: Carzelesin is a cyclopropylpyrroloindole analogue which acts as a DNA-sequence-specific alkylating agent. In this phase I study, Carzelesin was given as a 4-weekly 10 min IV infusion to 51 patients with advanced solid tumours. Patients received a median of two courses (range 1–5) at one of nine dose levels: 24, 48, 96, 130, 150, 170, 210, 250 and 300 μg m^−2. According to NCI-CTC criteria, non-haematological toxicities (grade 1/2) included fever, nausea and vomiting, mucositis and anorexia, none of which was clearly dose related. The dose-limiting toxicity was haematological and consisted mainly of neutropenia and to a lesser extent thrombocytopenia. From the dose level 150 μg m^−2, the haematological toxicity (particularly thrombocytopenia) was delayed in onset, prolonged and cumulative in some patients. In several courses, double WBC nadirs occurred. The maximum tolerated dose for a single course was 300 μg m^−2. From the dose level 170 μg m^−2, the intended dose intensity could not be delivered to most patients receiving > 2 courses owing to cumulative haematological toxicity. The dose level with the best dose intensity for multiple courses was 150 μg m^−2. The pharmacokinetics of Carzelesin and its metabolites (U-76,073; U-76,074) have been established in 31 patients during the first course of treatment using a HPLC method. […] The concentration of U-76,074 (active metabolite) extended above the lower limit of quantitation (1 ng ml^−1) for short periods of time and only at the higher dose levels. There was no relationship between neutropenia and the AUC of the prodrug Carzelesin, but the presence of detectable plasma levels of the active metabolite U-76,074 was usually associated with a substantial decrease in ANC values. © 1999 Cancer Research Campaign
Carzelesin (U-80,244, Figure 1A) is a cyclopropylpyrroloindole (CPI) prodrug analogue of CC-1065. […] CPI drugs are a class of compounds with unique DNA interactive properties. These agents fit into the minor groove region of DNA, and the CPI function in the molecule mediates a covalent binding to the N3 position of adenine in A-T rich regions, thus forming DNA adducts in a sequence selective fashion (Hurley et al, 1984; Reynolds et al, 1985). Three new CPIs have now been developed. […] Bizelesin differs from the classical CPI drugs in that it contains two chloromethyl functions, which are both converted (via intramolecular rearrangements) to the CPI alkyl- ating species that interact with DNA. Consequently, this agent is capable of forming DNA interstrand cross-links (Lee et al, 1991). […] Therefore, efforts were directed to modu- late the alkylation rate by the preparation of CPI prodrugs that would require chemical or enzymatic conversion. The activation of Carzelesin is a two-step reaction with hydrolysis of the phenyl- urethane substituent to form the intermediate compound U-76,073, followed by ring closure to form the active product U-76,074 (Figure 1B). […] This higher efficacy may be related to the pharmacologic features of the compound. […] Phase I study of Carzelesin (U-80,244) given (4-weekly) by intravenous bolus schedule A Awada1, CJA Punt2, MJ Piccart1, O Van Tellingen3, L Van Manen2, J Kerger1, Y Groot4, J Wanders4, J Verweij5 and DJTh Wagener2 1Institut Jules Bordet, Bd de Waterloo 125, 1000 Brussels, Belgium; 2University Hospital, Geert Grooteplein 8, Box 9101, 6500 HB Nijmegen, The Netherlands; 3The Netherlands Cancer Institute (Antoni van Leeuwenhoek Huis), Plesmanlaan 121, 1066 CX Amsterdam, The Netherlands; 4European Organization for Research and Treatment of Cancer - New Drug Development Office, PO Box 7057, Amsterdam, The Netherlands; 5Rotterdam Cancer Institute, Groene Hilledijk 301, 3075 EA Rotterdam, The Netherlands; on behalf of the EORTC Early Clinical Studies Group and EORTC NDDO Summary Carzelesin is a cyclopropylpyrroloindole analogue which acts as a DNA-sequence-specific alkylating agent. […]

[1] = Table 4, dose levels 150-300 μg m-2 combined, 31 evaluable patients

CCN(CC)c1ccc2cc(C(=O)Nc3ccc4[nH]c(C(=O)N5C[C@@H](CCl)c6c5cc(OC(=O)Nc5ccccc5)c5[nH]cc(C)c65)cc4c3)oc2c1 [Carzelesin]
Thrombocytopenia grade 3/4, patients following the first course (Table 3, dose level 210 μg m-2, one patient had pre-existing grade 1 thrombocytopenia): 0/1
Neutropenia grade 3/4, No. of courses (Table 3, dose level 250 μg m-2): 1/2
Neutropenia grade 3/4, No. of patients (worst grade per patient) (Table 3, dose level 250 μg m-2): 0/2
Neutropenia grade 3/4, patients following the first course (Table 3, dose level 250 μg m-2): 1/1
No. of toxic patients following the first course (Table 3, dose level 250 μg m-2): 2
Thrombocytopenia grade 3/4, No. of courses (Table 3, dose level 250 μg m-2): 1/1
Thrombocytopenia grade 3/4, No. of patients (worst grade per patient) (Table 3, dose level 250 μg m-2): 1/1
Thrombocytopenia grade 3/4, patients following the first course (Table 3, dose level 250 μg m-2): 1/0
No. of toxic patients/courses (grade 3/4 neutropenia and/or thrombocytopenia) (Table 3, dose level 250 μg m-2, 5/7 evaluable patients/courses): 2/3
Neutropenia grade 3/4, No. of courses (Table 3, dose level 300 μg m-2): 1/2
Neutropenia grade 3/4, No. of patients (worst grade per patient) (Table 3, dose level 300 μg m-2): 1/2
Neutropenia grade 3/4, patients following the first course (Table 3, dose level 300 μg m-2): 1/2
No. of toxic patients following the first course (Table 3, dose level 300 μg m-2): 3
Thrombocytopenia grade 3/4, No. of courses (Table 3, dose level 300 μg m-2): 1/1
Thrombocytopenia grade 3/4, No. of patients (worst grade per patient) (Table 3, dose level 300 μg m-2): 1/1
Thrombocytopenia grade 3/4, patients following the first course (Table 3, dose level 300 μg m-2): 1/1
No. of toxic patients/courses (grade 3/4 neutropenia and/or thrombocytopenia) (Table 3, dose level 300 μg m-2, 4/4 evaluable patients/courses): 3/3
Anorexia, patients with worst CTC-grade 1 [1]: 5
Anorexia, patients with worst CTC-grade 2 [1]: 5
Anorexia, patients with worst CTC-grade 3 [1]: 0
Anorexia, patients with worst CTC-grade 4 [1]: 0
Bilirubin toxicity, patients with worst CTC-grade 2 [1]: 6
Bilirubin toxicity, patients with worst CTC-grade 3 [1]: 1
Bilirubin toxicity, patients with worst CTC-grade 4 [1]: 0
Creatinine toxicity, patients with worst CTC-grade 1 [1]: 6
Creatinine toxicity, patients with worst CTC-grade 2 [1]: 1
Creatinine toxicity, patients with worst CTC-grade 3 [1]: 0
Creatinine toxicity, patients with worst CTC-grade 4 [1]: 0
Diarrhoea, patients with worst CTC-grade 1 [1]: 5
Diarrhoea, patients with worst CTC-grade 2 [1]: 1
Diarrhoea, patients with worst CTC-grade 3 [1]: 0
Fatigue/asthenia, patients with worst CTC-grade 1 [1]: 3
Fatigue/asthenia, patients with worst CTC-grade 2 [1]: 9
Fatigue/asthenia, patients with worst CTC-grade 3 [1]: 3
Fatigue/asthenia, patients with worst CTC-grade 4 [1]: 0
Fever, patients with worst CTC-grade 1 [1]: 4
Fever, patients with worst CTC-grade 2 [1]: 5
Fever, patients with worst CTC-grade 3 [1]: 2
Fever, patients with worst CTC-grade 4 [1]: 0
Mucositis, patients with worst CTC-grade 1 [1]: 7
Mucositis, patients with worst CTC-grade 2 [1]: 1
Mucositis, patients with worst CTC-grade 3 [1]: 0
Mucositis, patients with worst CTC-grade 4 [1]: 0
Nausea, patients with worst CTC-grade 1 [1]: 11
Nausea, patients with worst CTC-grade 2 [1]: 6
Nausea, patients with worst CTC-grade 3 [1]: 2
Nausea, patients with worst CTC-grade 4 [1]: 0
Pain at the infusion site, patients with worst CTC-grade 1 [1]: 9
Pain at the infusion site, patients with worst CTC-grade 2 [1]: 2
Pain at the infusion site, patients with worst CTC-grade 3 [1]: 0
Pain at the infusion site, patients with worst CTC-grade 4 [1]: 0
Proteinuria, patients with worst CTC-grade 1 [1]: 3
Proteinuria, patients with worst CTC-grade 2 [1]: 0
Proteinuria, patients with worst CTC-grade 3 [1]: 0
Proteinuria, patients with worst CTC-grade 4 [1]: 0
Vomiting, patients with worst CTC-grade 1 [1]: 7
Vomiting, patients with worst CTC-grade 2 [1]: 5
Vomiting, patients with worst CTC-grade 3 [1]: 2
Vomiting, patients with worst CTC-grade 4 [1]: 0
Diarrhoea, patients with worst CTC-grade 4 (Table 4, dose levels 150-300 μg m-2 combined, 31 evaluable patients, relation to Carzelesin was unlikely): 1
patients who received red cell transfusions while on study (different dose levels from 130): Nine patients
patients with grade 4 myelotoxicity (dose level 150, six evaluable patients): two patients out of six
episode of febrile neutropenia (dose level 250): One patient
patients with grade 4 neutropenia (dose level 300): two out of four
patients with grade 4 myelotoxicity (dose levels 96 and 130): two patients
grade 3 or 4 haematological toxicities (first two dose levels (24, 48)): no grade 3 or 4 haematological toxici- ties were observed
second drop in leucocyte and neutrophil count after apparent recovery, evaluable courses (from the dose level of 130): 26%
second drop in leucocyte and neutrophil count after apparent recovery, evaluable patients (from the dose level of 130): 33%
non-haematological toxicities, overall (grade 1-2, none clearly dose related): infrequent and mild
flush reaction, patients (in vivo): five patients
haemorrhagic episodes during treatment (in vivo): No haemorrhagic episodes
dose-limiting toxicity (mainly neutropenia, to a lesser extent thrombocytopenia): haematological
median days to complete recovery, neutrophils (overall, median (range)): 28 (20-35) days
median days to complete recovery, platelets (overall, median (range)): 33 (24-56) days
median days to nadir, neutrophils (overall, median (range)): 12 (8-14) days
median days to nadir, platelets (overall, median (range)): 20 (15-26) days
